Tests used:
[1] = human
[2] = human; remark: listed apart in the source
[3] = human; remark: listed apart in the source
[4] = human; remark: listed apart in the source
[5] = human, serum
[6] = human; remark: listed apart in the source
[7] = Comments (NB not yet translated). [column 'COMMENTAIRES' in source]; conditions: human
[8] = human; remark: listed apart in the source
[9] = human, serum; remark: listed apart in the source
[10] = Presence of at least one case with successful reintroduction. [column 'REINT' in source]; conditions: human
[11] = Times to onset, minimal and maximal, observed in the indexed observations. [column 'DELAI' in source]; conditions: human
[12] = human, serum, 4383 h
[13] = human; remark: listed apart in the source
[14] = Highest frequency of moderate liver toxicity observed during clinical trials, expressed as a percentage. [column '% BIOL' in source]; conditions: human
[15] = Highest frequency of acute liver toxicity observed during clinical trials, expressed as a percentage. [column '% AIGUE' in source]; conditions: human
[16] = human; remark: listed apart in the source
[17] = human; remark: listed apart in the source
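Throughout, for Hepatotoxicity (association with vascular disease): count of indexed literature references reporting vascular liver injury in humans, e.g. peliosis hepatitis, hepatic veno-occlusive disease or Budd-Chiari syndrome.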
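Throughout, for Hepatotoxicity (benign tumour): value is a count of indexed literature references citing a benign tumour confirmed by histopathology.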
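Throughout, for Hepatotoxicity (choleostasis): human cholestatic liver injury, shown by histopathology or by peak ALT or AST elevation over alkaline phosphatase ratio below 2, value counts indexed literature reports.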
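Throughout, for Hepatotoxicity (chronic liver disease): chronic liver injury confirmed by histopathology or persistently raised serum aminotransferase activity beyond 6 months, value given as the count of indexed literature references.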
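Throughout, for Hepatotoxicity (cirrhosis): value is a count of indexed literature references reporting cirrhosis confirmed by histopathology.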
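Throughout, for Hepatotoxicity (cytolytic): human cytolytic liver injury, shown by histopathology or by a ratio above 5 of peak ALT or AST elevation to alkaline phosphatase elevation, value counts indexed references.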
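Throughout, for Hepatotoxicity (granulomatous hepatitis): value is a count of indexed literature references reporting granulomatous liver disease confirmed by histopathology.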
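Throughout, for Hepatotoxicity (malignant tumour): malignant tumour confirmed by histopathology, value gives the count of indexed literature references reporting it.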
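Throughout, for Hepatotoxicity (severe hepatitis): human clinical data: severe hepatitis, meaning potentially life-threatening liver failure or clinically observed cases, the value counts how many indexed literature references report it.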
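Throughout, for Hepatotoxicity (steatosis): steatosis confirmed by histopathology, value is the count of indexed references.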

Compound	Hepatotoxicity (cytolytic) [1]	Hepatotoxicity (steatosis) [2]	Hepatotoxicity (severe hepatitis) [3]	Hepatotoxicity (choleostasis) [4]	Hepatotoxicity (moderate) [5]	Hepatotoxicity (granulomatous hepatitis) [6]	Hepatotoxicity (comment) [7]	Hepatotoxicity (malignant tumour) [8]	Hepatotoxicity (acute) [9]	Hepatotoxicity (successful reintroduction) [10]	Hepatotoxicity (time to onset) [11]	Hepatotoxicity (chronic liver disease) [12]	Hepatotoxicity (benign tumour) [13]	Hepatotoxicity (moderate) [14]	Hepatotoxicity (acute) [15]	Hepatotoxicity (association with vascular disease) [16]	Hepatotoxicity (cirrhosis) [17]	Hepatotoxicity (severe hepatitis) ([3]; Liver)	Hepatotoxicity (moderate) ([14]; Liver)	Hepatotoxicity (acute) ([15]; Liver)	other results
CC(=O)CC(c1ccc([N+](=O)[O-])cc1)c1c(O)c2ccccc2oc1=O (stereo not given) [ACENOCOUMAROL]	3	0	0	6	2	0	RC/PHENPROCOUMON CHOLESTASE_PROLONGEE	0	8	yes	2 days - 5 years	1	0	0%	0%	0	0	–	–	–	–
CN1Cc2c(N)cccc2C(c2ccccc2)C1 (stereo not given) [NOMIFENSINE]	8	0	0	6	6	5	RC/MIANSERINE	0	11	yes	3 days - 3 months	0	0	0%	0%	0	0	–	–	–	–
c1ccc([C@H]2CN3CCSC3=N2)cc1 [LEVAMISOLE]	–	6	–	–	11	–	I/FLUOROURACIL	0	0	yes	1 month - 1 year	0	0	–	–	0	0	0	61.2%	0%	Hepatotoxicity (cytolytic) ([1]; Liver): 0; Hepatotoxicity (choleostasis) ([4]; Liver): 0; Hepatotoxicity (granulomatous hepatitis) ([6]; Liver): 0
NC(N)=Nc1nc(CSCCC(N)=NS(N)(=O)=O)cs1 [FAMOTIDINE]	–	0	–	–	12	–	RC/CIMETIDINE	0	5	yes	3 days - 3 weeks	0	0	–	–	0	0	0	2.8%	0%	Hepatotoxicity (cytolytic) ([1]; Liver): 4; Hepatotoxicity (choleostasis) ([4]; Liver): 0; Hepatotoxicity (granulomatous hepatitis) ([6]; Liver): 0
CC[C@H](C)C(=O)O[C@H]1C[C@H](O)C=C2C=C[C@H](C)[C@H](CC[C@@H](O)C[C@@H](O)CC(=O)O)[C@H]21 [PRAVASTATIN]	3	1	–	3	50	0	AC_ANTI-N/-MF	0	7	yes	1 week - 20 weeks	0	0	–	–	0	0	0	22.5%	1.1%	–
CCOC(=O)/C=C(C)/C=C/C=C(C)/C=C/c1c(C)cc(OC)c(C)c1C [ETRETINATE]	12	5	2	6	31	1	I/METHOTREXATE CHOLANGITE	0	20	yes	1 week - 1 year	7	0	33%	1.5%	0	1	–	–	–	–
Cc1ncc(CSSCc2cnc(C)c(O)c2CO)c(CO)c1O [PYRITINOL]	1	1	1	4	1	0	CHOLESTASE_PROLONGEE	0	6	yes	1 day - 2 months	0	0	1.4%	0%	0	0	–	–	–	–
Cc1cn([C@H]2C[C@H](N=[N+]=[N-])[C@@H](CO)O2)c(=O)[nH]c1=O [ZIDOVUDINE]	22	17	13	3	26	0	I/INTERFERON/PARACETAMOL REACTIVATION_HVB	0	25	yes	1 week - 8 years	0	0	44%	12.5%	0	0	–	–	–	–
CN[C@H]1CC[C@@H](c2ccc(Cl)c(Cl)c2)c2ccccc21 [SERTRALINE]	–	0	–	–	4	–	CHOLANGIOLITE	0	8	yes	3 days - 5 months	0	0	–	–	0	0	1	0.8%	0%	Hepatotoxicity (cytolytic) ([1]; Liver): 5; Hepatotoxicity (choleostasis) ([4]; Liver): 4; Hepatotoxicity (granulomatous hepatitis) ([6]; Liver): 0
ALTEPLASE	1	0	0	0	4	0	AGGRAVATION_MVO	0	1	yes	3 days - 4 days	0	0	21.2%	0%	0	0	–	–	–	–

Source: ChEMBL document CHEMBL3137667, “[Drug-induced liver injury; fourteenth updated edition of the bibliographic database of liver injuries and related drugs]” (Gastroenterol Clin Biol, 2004)
